pKi: −log10 of the molar value.
What was measured:
α1A adrenoceptor = molecular target: T1, α1A adrenoceptor (Rattus norvegicus, UniProt P43140); assay: Receptor binding assay, displacement of [3H]prazosin, rat submaxillary membranes; conditions: for pKi: [3H]prazosin displacement, rat submaxillary membranes, read-out: α1A (Rat submaxillary) Ki; for Selectivity α1B/α1A: ratio of Ki α1B (rat liver) / α1A (rat submaxillary)
T1 construct: from tissue; host or cells: rat submaxillary gland membranes
T1 sequence (P43140 1-466): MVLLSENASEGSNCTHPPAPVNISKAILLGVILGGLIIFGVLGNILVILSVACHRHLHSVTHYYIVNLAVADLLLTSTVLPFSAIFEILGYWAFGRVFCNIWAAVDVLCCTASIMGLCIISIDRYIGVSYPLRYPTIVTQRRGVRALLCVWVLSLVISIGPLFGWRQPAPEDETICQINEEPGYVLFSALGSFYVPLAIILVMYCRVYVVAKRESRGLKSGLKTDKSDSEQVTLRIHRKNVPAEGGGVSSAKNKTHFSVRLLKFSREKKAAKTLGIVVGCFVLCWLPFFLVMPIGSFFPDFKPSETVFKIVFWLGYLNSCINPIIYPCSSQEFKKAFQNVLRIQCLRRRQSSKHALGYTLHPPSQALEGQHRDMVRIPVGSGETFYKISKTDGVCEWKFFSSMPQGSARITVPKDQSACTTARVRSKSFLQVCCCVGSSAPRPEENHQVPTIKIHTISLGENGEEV
Experimental: Receptor binding assays were performed using native α-adrenoceptors.
(§1) Submaxillary glands were isolated immediately after sacrifice. The liver was perfused with buffer (Tris HCl 50 mM, NaCl 100 mM, 10 mM EDTA pH 7.4). The tissues were homogenised in 10 volumes of buffer (Tris HCl 50 mM, NaCl 100 mM, EDTA 10 mM, pH 7.4). The homogenate was filtered through two layers of wet gauze and filtrate was centrifuged at 500 g for 10 min. The supernatant was subsequently centrifuged at 40,000 g for 45 min. The pellet thus obtained was resuspended in the same volume of assay buffer (Tris HCl 50 mM, EDTA 5 mM, pH 7.4) and were stored at −70° C. until the time of assay.
(§2) The membrane homogenates (150-250 μg protein) were incubated in 250 μl of assay buffer (Tris HCl 50 mM, EDTA 5 mM, pH 7.4) at 24-25° C. for 1 h. Non-specific binding was determined in the presence of 300 nM prazosin. The incubation was terminated by vacuum filtration over GF/B fibre filters. The filters were then washed with ice cold 50 mM Tris HCl buffer (pH 7.4). The filtermats were dried and bound radioactivity retained on filters was counted.The IC50 & Kd were estimated by using the non-linear curve fitting program using G Pad Prism software.

α1B adrenoceptor = molecular target: T2, α1B adrenoceptor (Rattus norvegicus, UniProt P15823); assay: Receptor binding assay, displacement of [3H]prazosin, rat liver membranes; conditions: [3H]prazosin displacement, rat liver membranes; read-out: α1B (Rat liver) Ki
T2 construct: from tissue; host or cells: rat liver membranes
T2 sequence (P15823 1-515): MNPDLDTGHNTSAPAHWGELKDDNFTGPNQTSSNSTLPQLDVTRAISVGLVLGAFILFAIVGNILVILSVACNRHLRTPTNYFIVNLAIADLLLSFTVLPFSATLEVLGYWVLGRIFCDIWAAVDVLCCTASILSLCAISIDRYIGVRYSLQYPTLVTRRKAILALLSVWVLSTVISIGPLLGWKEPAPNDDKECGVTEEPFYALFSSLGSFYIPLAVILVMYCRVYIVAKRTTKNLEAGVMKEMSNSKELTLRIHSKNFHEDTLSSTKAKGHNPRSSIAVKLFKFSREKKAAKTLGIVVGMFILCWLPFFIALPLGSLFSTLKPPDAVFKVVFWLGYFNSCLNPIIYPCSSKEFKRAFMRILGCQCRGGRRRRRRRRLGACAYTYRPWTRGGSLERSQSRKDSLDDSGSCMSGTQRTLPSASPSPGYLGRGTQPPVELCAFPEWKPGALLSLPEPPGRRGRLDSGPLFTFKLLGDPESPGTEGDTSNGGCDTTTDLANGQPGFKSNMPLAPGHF
Experimental: Receptor binding assays were performed using native α-adrenoceptors. The affinity of different compounds for α1A and α1B adrenoceptor subtypes was evaluated by studying their ability to displace specific [^3H]prazosin binding from the membranes of rat submaxillary and liver respectively (Michel et al, Br J Pharmacol, 98, 883-889 (1989)). The binding assays were performed according to U'Prichard et al. (Eur J Pharmacol, 50:87-89 (1978)) with minor modifications.
as §1
as §2, with “software. The value of inhibition constant Ki was calculated from competitive binding studies by using Cheng & Prusoff equation (Cheng & Prusoff, Biochem Pharmacol, 1973,22: 3099-3108), Ki=IC50/(1+L/Kd) where L is the concentration of [^3H]prazosin used in the particular experiment (Table I).” for “software.”

[1] = molecular target: T3, α1A adrenoceptor (prostate) (Rattus norvegicus, UniProt P43140); assay: In vitro functional study, antagonism of phenylepinephrine-induced contraction of prostate; assay type: biochemical; conditions: for Kb: prostate, phenylepinephrine, tested compound at 0.1, 1 and 10 mM, read-out: α Adrenoceptor Subtype (pKB) α1A (converted)
T3 construct: from tissue; host or cells: isolated prostate tissue
T3 sequence (P43140 1-466): T1 sequence (P43140 1-466)
Text: (§3) In order to study selectivity of action of these compounds towards different α-adrenoceptor subtypes, the ability of these compounds to antagonise α1-adrenoceptor agonist induced contractile response on aorta (α1Dprostate (α1A and spleen (α1B was studied. Aorta and spleen tissues were isolated from urethane anaesthetised (1.5 gm/kg) male wistar rats. Isolated tissues were mounted in organ bath containing Krebs Henseleit buffer of following composition (mM): NaCl 118; KCl 4.7; CaCl2 2.5; MgSO4. 7H2O 1.2; NaHCO3 25; KH2PO41.2; glucose 11.5. Buffer was maintained at 37° C. and aereated with a mixture of 95% O2 and 5% CO2. A resting tension of 2 g (aorta) or 1 g (spleen and prostate)was applied to tissues. Contractile response was monitored using a force displacement transducer and recorded on chart recorders. Tissues were allowed to equilibrate for 2 hours. At the end of equilibration period, concentration response curves to norepinephrine (aorta) and phenylepinephrine (spleen and prostate) were obtained in absence and presence of tested compound (at concentration of 0.1,1 and 10 mM). Antagonist affinity was calculated and expressed as pKB vales in Table II.

[2] = molecular target: T4, α1B adrenoceptor (spleen) (Rattus norvegicus, UniProt P15823); assay: In vitro functional study, antagonism of phenylepinephrine-induced contraction of spleen; assay type: biochemical; conditions: tested compound at 0.1, 1 and 10 mM, read-out: α Adrenoceptor Subtype (pKB) α1B (converted)
T4 construct: Isolated tissues were mounted in organ bath containing Krebs Henseleit buffer; from tissue; host or cells: isolated spleen of male wistar rats
T4 sequence (P15823 1-515): T2 sequence (P15823 1-515)
Text: as §3

α1D adrenoceptor (aorta) = molecular target: T5, α1D adrenoceptor (aorta) (Rattus norvegicus, UniProt P23944); assay: In vitro functional study, antagonism of norepinephrine-induced contraction of aorta; assay type: biochemical; conditions: tested compound at 0.1, 1 and 10 mM, read-out: α Adrenoceptor Subtype (pKB) α1D (converted)
T5 construct: Isolated tissues were mounted in organ bath containing Krebs Henseleit buffer; from tissue; host or cells: isolated aorta of male wistar rats
T5 sequence (P23944 1-561): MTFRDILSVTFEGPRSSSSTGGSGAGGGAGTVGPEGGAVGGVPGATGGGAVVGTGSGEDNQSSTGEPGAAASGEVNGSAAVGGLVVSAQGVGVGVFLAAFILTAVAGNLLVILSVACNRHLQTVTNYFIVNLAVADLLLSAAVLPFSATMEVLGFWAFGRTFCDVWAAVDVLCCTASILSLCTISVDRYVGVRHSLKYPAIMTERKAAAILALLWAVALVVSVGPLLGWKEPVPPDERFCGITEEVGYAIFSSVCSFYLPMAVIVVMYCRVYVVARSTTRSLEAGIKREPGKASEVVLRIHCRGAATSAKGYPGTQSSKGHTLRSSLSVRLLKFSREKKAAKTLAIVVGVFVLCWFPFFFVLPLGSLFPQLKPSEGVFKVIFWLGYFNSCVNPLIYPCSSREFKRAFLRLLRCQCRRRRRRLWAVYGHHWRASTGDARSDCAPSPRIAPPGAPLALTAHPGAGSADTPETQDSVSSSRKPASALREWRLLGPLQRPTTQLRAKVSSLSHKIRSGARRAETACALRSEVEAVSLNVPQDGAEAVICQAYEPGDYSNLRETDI
Text: as §3

[3] = functional assays, from pKB values

| SMILES | pKi (α1A adrenoceptor) | Selectivity α1B/α1A (α1A adrenoceptor) | pKi (α1B adrenoceptor) | Selectivity α1A/α1B [1, 3] | Selectivity α1A/α1D [1, 3] | Kb [1] | Kb [2] | Kb (α1D adrenoceptor (aorta)) | melting point |
| --- | --- | --- | --- | --- | --- | --- | --- | --- | --- |
| Cl.O=C1C2CC=CCC2C(=O)N1CCCN1CCN(c2ccccc2)CC1 (centres unmarked) [Compound 13, 2-[3-{4-(Phenyl)piperazin-1-yl}propyl]-3a,4,7,7a-tetrahydro-1H-isoindole-1,3(2H)-dione hydrochloride] | 8.20 | 61 | 6.42 | 89 | 5.6 | 9.12 nM | 813 nM | 51.3 nM | 231 to 232 °C |
| COc1ccc(F)cc1N1CCN(CCCN2C(=O)C3CC=CCC3C2=O)CC1.Cl (centres unmarked) [Compound 08, 2-[3-{4-(2-Methoxy-5-fluorophenyl)piperazin-1-yl}propyl]-3a,4,7,7a-tetrahydro-1H-isoindole-1,3(2H)-dione hydrochloride] | 9.47 | 85 | 7.54 | 3.4 | – | 1.17 nM | 3.98 nM | 0.891 nM | 163 to 165 °C |

— patent US6914064B2, “1,4-Disubstituted piperazine derivatives useful as uro-selective α1-adrenoceptor blockers” (Ranbaxy Laboratories Limited, priority 2000, dated 2005)
